Consider 15 molecules from US4211773A, “5-Substituted 1-(2'-Deoxy-2'-substituted-β-D-arabinofuranosyl)pyrimidine nucleosides” (Sloan Kettering Institute for Cancer Research, priority 1978, dated 1980).

Values after ≈ are worked out from the molar mass of the structure shown.

For series [1], the system named is herpes simplex virus (HSV). The note with it: compared with corresponding deoxyuridine analogs; cited from earlier work.
Series [2] has as its system herpesvirus infected cells. The settings on record: cells in which deoxycytidine deaminase is present; cited from earlier work.
The subject of series [3] is HSV type 1. The settings on record: cited from earlier work.
Series [4] deals with HSV type 2. The note with it: cited from earlier work.
Series [5] has as its system equine herpesvirus. The note with it: cited from earlier work.
Series [6] relates to Herpes Simplex Virus--Type 1 (HSV-1) strain 2931. Nature of the series: Capacity to suppress HSV-1 replication in monolayers of Vero cells. The settings on record: 24 hr, read-out: Anti-viral Activity (% reduction of HSV1 titer); for activity at 0.01 µg/mL: Human alphaherpesvirus 1, 0.01 μg/ml; for activity at 0.1 µg/mL: Human alphaherpesvirus 1, 0.1 μg/ml; for activity at 1 µg/mL: Human alphaherpesvirus 1, 1.0 μg/ml; for activity at 10 µg/mL: Human alphaherpesvirus 1, 10 μg/ml. It is filed as cell-based. On the procedure:
The capacity of 2'-fluoro-arabinosyl nucleosides (Formulas IV and V shown below) to suppress replication of Herpes Simplex virus-type 1 (HSV-1) in monolayers of Vero cells is shown in Table I.
Vero cell monolayers were infected with approximately 1 plaque forming unit (PFU) per cell of Herpes Simplex Virus--Type 1 (HSV-1) strain 2931 and incubated for 2 hr. Maintenance media containing the various concentrations of drugs were used to overlay the monolayers. Supernatant fluids were collected 24 hr. later and titered on Vero cell monolayers described in Lopez et al, Ann. N.Y. Acad. Sci., 284, 351 (1977). Percent inhibition over controls was calculated.

Series [7] concerns L51784. Description: Cytotoxicity, inhibition of growth of L51784 cells in vitro. It is filed as cell-based. The note with it: 96 h, read-out: Cytoxicity ID50. The method, then: (§1) *****Concentration required for 50% inhibition of growth of cells in
(§2) vitro after 96 hrs. incubation at 37° C.

Series [8] deals with P815. Nature of the series: Cytotoxicity, inhibition of growth of P815 cells in vitro. The settings on record: Mus musculus, 96 hrs. incubation at 37° C., read-out: Cytoxicity ID50. It is filed as cell-based. The method, then:
as §1, §2

Series [9] concerns several DNA virus. The settings on record: cell culture; cited from earlier work.
Series [10] concerns herpes infections. The note with it: therapeutic trials in herpes infections; cited from earlier work.
Series [11] relates to anti-viral. The note with it: cited from earlier work.

Turning to `Nc1nc(=O)n([C@H]2C[C@H](O)[C@@H](CO)O2)cc1Br` [5-Bromo-2'-deoxycytidine], the “inhibition of HSV replication” value in series [1] is reported as “as effectively as their corresponding deoxyuridine analogs”.
As for `Cc1cn([C@@H]2O[C@H](CO)[C@@H](O)[C@@H]2O)c(=O)nc1N` [5-Methyl-ara-C], in series [2], the “activity against herpesvirus infected cells” value is “active”.
As to `Nc1nc(=O)n([C@H]2C[C@H](O)[C@@H](CO)O2)cc1I` [5-iodo-2'-deoxycytidine], the “inhibition of HSV replication” value in series [1] is on record as “as effectively as their corresponding deoxyuridine analogs”.
For the molecule `Cc1cn([C@@H]2O[C@H](CO)[C@@H](O)[C@@H]2O)c(=O)[nH]c1=O` [Ara-T], the “activity against HSV type 1” value in [3] was “active”. Besides, the “activity against HSV type 2” value in series [4] was “active”. Further, in [5], the “activity against equine herpesvirus” value is listed as “active”.
As for `Nc1ccn([C@@H]2O[C@H](CO)[C@@H](O)[C@@H]2F)c(=O)n1` [IVa, 1-(2-deoxy-2-fluoro-β-D-arabinofuranosyl)cytosine, reference compound], in series [6], the activity at 0.01 µg/mL was below 90%, the activity at 0.1 µg/mL was 90 to 99%, the activity at 1 µg/mL was in the range of 90 to 99% and the activity at 10 µg/mL lay within 99.9 to 100%. In addition, the activity at 100 µg/mL in series [6] (Human alphaherpesvirus 1, 100 μg/ml) turned out to be 100%. For the same molecule, the IC50 in series [7] was found to be 0.05 µg/mL (≈ 0.204 µM). In addition, in series [8], the IC50 came out at 0.05 µg/mL (≈ 0.204 µM).
For `Nc1nc(=O)n([C@@H]2O[C@H](CO)[C@@H](O)[C@@H]2F)cc1F` [IVb, 1-(2-deoxy-2-fluoro-β-D-arabinofuranosyl)-5-fluorocytosine], in series [6], the activity at 0.01 µg/mL was below 90%, the activity at 0.1 µg/mL lay within 90 to 99%, the activity at 1 µg/mL lay within 99 to 99.9% and the activity at 10 µg/mL lay within 99.9 to 100%. The IC50 in series [7] amounted to 0.5 µg/mL (≈ 1.9 µM). Besides, the IC50 in series [8] came to 0.4 µg/mL (≈ 1.52 µM).
Turning to `Nc1nc(=O)n([C@@H]2O[C@H](CO)[C@@H](O)[C@@H]2F)cc1Cl` [IVc, 1-(2-deoxy-2-fluoro-β-D-arabinofuranosyl)-5-chlorocytosine], in series [6], the activity at 0.01 µg/mL was below 90%, the activity at 0.1 µg/mL is below 90%, the activity at 1 µg/mL is below 90% and the activity at 10 µg/mL was 99.9 to 100%. For the same molecule, the IC50 in series [7] was determined as 1.4 µg/mL (≈ 5.01 µM). Also, in series [8], the IC50 is around 1 µg/mL (≈ 3.58 µM).
As for `Nc1nc(=O)n([C@@H]2O[C@H](CO)[C@@H](O)[C@@H]2F)cc1Br` [IVd, 1-(2-deoxy-2-fluoro-β-D-arabinofuranosyl)-5-bromocytosine], in series [6], the activity at 0.01 µg/mL is below 90%, the activity at 0.1 µg/mL fell in the range of 90 to 99%, the activity at 1 µg/mL was in the range of 99 to 99.9% and the activity at 10 µg/mL came to 100%. For the same molecule, in series [7], the IC50 is around 10 µg/mL (≈ 30.9 µM). Moreover, the IC50 in series [8] is above 10 µg/mL.
In the case of `O=c1ccn([C@@H]2O[C@H](CO)[C@@H](O)[C@@H]2F)c(=O)[nH]1` [Va], in [6], the activity at 0.01 µg/mL was below 90%, the activity at 0.1 µg/mL is below 90%, the activity at 1 µg/mL was in the range of 99 to 99.9% and the activity at 10 µg/mL was 99 to 99.9%. For the same molecule, the IC50 in series [7] was above 10 µg/mL. Moreover, in series [8], the IC50 is above 10 µg/mL.
As to `O=c1[nH]c(=O)n([C@@H]2O[C@H](CO)[C@@H](O)[C@@H]2F)cc1F` [Vb, 1-(2-deoxy-2-fluoro-β-D-arabinofuranosyl)-5-fluorouracil], in [6], the activity at 0.01 µg/mL is below 90%, the activity at 0.1 µg/mL was in the range of 99 to 99.9%, the activity at 1 µg/mL stood at 100% and the activity at 10 µg/mL stood at 100%. The IC50 in [7] came out at 1 µg/mL (≈ 3.79 µM). For the same molecule, in series [8], the IC50 was determined as 0.7 µg/mL (≈ 2.65 µM).
Regarding `O=c1[nH]c(=O)n([C@@H]2O[C@H](CO)[C@@H](O)[C@@H]2F)cc1Cl` [Vc, 1-(2-deoxy-2-fluoro-β-D-arabinofuranosyl)-5-chlorouracil], in series [6], the activity at 0.01 µg/mL was below 90%, the activity at 0.1 µg/mL was below 90%, the activity at 1 µg/mL is below 90% and the activity at 10 µg/mL worked out at 100%. In [7], the IC50 turned out to be 1.4 µg/mL (≈ 4.99 µM). For the same molecule, the IC50 in [8] was 3.4 µg/mL (≈ 12.1 µM).
Take `O=c1[nH]c(=O)n([C@@H]2O[C@H](CO)[C@@H](O)[C@@H]2F)cc1Br` [Vd, 1-(2-deoxy-2-fluoro-β-D-arabinofuranosyl)-5-bromouracil]: in series [6], the activity at 0.01 µg/mL is below 90%, the activity at 0.1 µg/mL was below 90%, the activity at 1 µg/mL fell in the range of 99 to 99.9% and the activity at 10 µg/mL worked out at 100%. The IC50 in series [7] was 0.9 µg/mL (≈ 2.77 µM). For the same molecule, the IC50 in series [8] came to 1.6 µg/mL (≈ 4.92 µM).
As to `O=c1[nH]c(=O)n([C@@H]2O[C@H](CO)[C@@H](O)[C@@H]2F)cc1I` [Ve, 1-(2-deoxy-2-fluoro-β-D-arabinofuranosyl)-5-iodouracil], in series [6], the activity at 0.01 µg/mL was below 90%, the activity at 0.1 µg/mL lay in the range of 90 to 99%, the activity at 1 µg/mL was 99.9 to 100% and the activity at 10 µg/mL was 100%. In addition, the IC50 in [7] worked out at 0.9 µg/mL (≈ 2.42 µM). In addition, in series [8], the IC50 was determined as 0.8 µg/mL (≈ 2.15 µM).
Turning to `Nc1ccn([C@@H]2O[C@H](CO)[C@@H](O)[C@@H]2O)c(=O)n1` [ara-C, 1-β-D-Arabinofuranosylcytosine], the “inhibition of multiplication of several DNA virus” value in [9] is on record as “inhibits the multiplication of several DNA virus in cell culture”. The “therapeutic to toxic ratio” value in series [10] is recorded as “unity”.
Turning to `O=c1ccn([C@@H]2O[C@H](CO)[C@@H](O)[C@@H]2O)c(=O)[nH]1` [ara-U, 1-β-D-arabinofuranosyluracil], the anti-viral activity entry in series [11] is recorded as “devoid of anti-viral or anti-cancer activity”.
